From patent US6610710B2, “Phenylalanine derivatives” (Ajinomoto Co., Inc., priority 1999, dated 2003)

Target: T1, integrin α4β7 (RPMI-8866 cells) binding with rat MAdCAM-1/human IgG1 chimera protein (Homo sapiens, UniProt P13612+P26010)
T1 construct: lymphoma cell strain RPMI-8866 of human B cells, known to express integrin α4β7; endogenous in cells; host or cells: RPMI-8866 (human B-cell lymphoma line)
T1 sequence (P13612 34-1032): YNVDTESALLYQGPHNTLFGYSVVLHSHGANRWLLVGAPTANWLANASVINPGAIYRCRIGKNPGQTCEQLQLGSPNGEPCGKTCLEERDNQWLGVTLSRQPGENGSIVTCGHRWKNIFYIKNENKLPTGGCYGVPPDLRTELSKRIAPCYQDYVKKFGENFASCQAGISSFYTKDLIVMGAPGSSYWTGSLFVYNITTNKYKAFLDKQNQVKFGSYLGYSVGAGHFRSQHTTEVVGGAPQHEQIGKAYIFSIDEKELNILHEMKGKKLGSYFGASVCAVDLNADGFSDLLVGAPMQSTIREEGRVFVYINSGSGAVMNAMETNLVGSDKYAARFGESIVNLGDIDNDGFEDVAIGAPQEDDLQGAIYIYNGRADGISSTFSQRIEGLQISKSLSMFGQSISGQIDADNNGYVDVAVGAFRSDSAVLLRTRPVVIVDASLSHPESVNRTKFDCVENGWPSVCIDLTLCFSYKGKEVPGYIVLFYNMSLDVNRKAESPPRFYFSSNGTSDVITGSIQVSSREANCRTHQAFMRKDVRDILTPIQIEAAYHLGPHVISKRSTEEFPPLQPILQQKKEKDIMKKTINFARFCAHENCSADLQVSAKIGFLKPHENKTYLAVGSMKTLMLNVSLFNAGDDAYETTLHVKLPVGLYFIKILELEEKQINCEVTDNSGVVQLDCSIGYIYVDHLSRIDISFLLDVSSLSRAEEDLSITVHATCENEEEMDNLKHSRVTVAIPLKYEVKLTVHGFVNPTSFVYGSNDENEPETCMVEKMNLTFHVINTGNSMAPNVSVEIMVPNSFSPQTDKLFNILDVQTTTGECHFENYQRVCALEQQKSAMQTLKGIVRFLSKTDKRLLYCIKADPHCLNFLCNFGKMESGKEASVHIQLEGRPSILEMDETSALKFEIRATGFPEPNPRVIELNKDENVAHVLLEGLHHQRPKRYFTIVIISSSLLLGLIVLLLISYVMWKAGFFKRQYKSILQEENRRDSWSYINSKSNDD
T1 sequence (P26010 20-798): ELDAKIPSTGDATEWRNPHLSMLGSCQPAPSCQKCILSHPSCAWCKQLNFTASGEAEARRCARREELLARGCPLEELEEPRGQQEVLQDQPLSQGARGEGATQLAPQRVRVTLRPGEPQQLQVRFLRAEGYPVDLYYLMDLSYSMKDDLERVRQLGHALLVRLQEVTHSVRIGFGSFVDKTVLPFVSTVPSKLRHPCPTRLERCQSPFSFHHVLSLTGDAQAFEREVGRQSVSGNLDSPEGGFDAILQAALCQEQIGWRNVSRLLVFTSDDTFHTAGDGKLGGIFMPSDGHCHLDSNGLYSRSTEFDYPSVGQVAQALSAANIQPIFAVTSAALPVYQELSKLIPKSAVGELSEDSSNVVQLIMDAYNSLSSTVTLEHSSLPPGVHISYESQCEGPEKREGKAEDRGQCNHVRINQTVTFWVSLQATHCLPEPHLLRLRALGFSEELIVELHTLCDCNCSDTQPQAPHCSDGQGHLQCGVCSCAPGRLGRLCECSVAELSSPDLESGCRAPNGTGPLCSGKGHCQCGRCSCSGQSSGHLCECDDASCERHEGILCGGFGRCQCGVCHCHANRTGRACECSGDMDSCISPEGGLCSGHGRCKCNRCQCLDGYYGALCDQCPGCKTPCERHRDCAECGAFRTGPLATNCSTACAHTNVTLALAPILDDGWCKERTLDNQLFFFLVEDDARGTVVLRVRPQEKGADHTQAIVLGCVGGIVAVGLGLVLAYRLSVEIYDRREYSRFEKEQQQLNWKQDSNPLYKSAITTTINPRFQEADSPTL
Assay: Rat MAdCAM-1 antagonistic activity (rat MAdCAM-1/α4β7 binding assay), RPMI-8866 cell adhesion
Type: cell-based
Conditions: 4 mM MnCl2, read-out: MadCAM/α 4 β 7 antagonistic activity to integrin (IC50)
Experimental: (Test Example) Rat MAdCAM-1 Antagonistic Activity (rat MAdCAM-1/α4β7 Binding Assay):
The capacity of a test substance antagonistic to the binding of lymphoma cell strain RPMI-8866 of human B cells, known to express integrin α4β7, with rat MAdCAM-1/human IgG1 chimera protein was determined.
100 μl/well of human IgG1 antibody (SIGMA #I-6260) diluted with buffer A to 1/1,000 concentration was added to a micro titer plate having 96 wells. After the incubation at 4° C. overnight, the plate was washed with PBS once. 100 μl/well of rat MAdCAM-1/human IgG1 chimera protein solution diluted with a buffer (buffer C)obtained by diluting Block Ace® (Dainippon Pharmaceutical Co., Ltd.) with PBS to 1/10 concentration was added in an amount of 100 μl/well. After the incubation at 37° C. for 2 hours, unbound MAdCAM-1/IgG was removed by washing once with PBS. After completion of the washing, 150 μl/well of buffer B was added and the incubation was continued at room temperature for 1 hour. Buffer B was removed and then the plate was washed with PBS once.
RPMI-8866 cells were incubated in DMEM containing 10 μg/ml of Calcein-AM at 37° C. for 30 minutes to label them with fluorescence. The cells were again suspended in a binding buffer containing 4 mM of MnCl2.
50 μl of a test substance of various concentrations obtained by the dilution with the binding buffer was added to the plate. Immediately thereafter, 50 μl (final volume: 100 μl/well) of the fluorescent RPMI-8866 cells (4×10^6 cells/ml ) were added thereto, and they were incubated at room temperature for 30 minutes. After the shaking on a plate shaker (IKA MTS-4) at 800 rpm for 30 seconds, the solution was immediately removed to remove the unbound cells. The fluorescence quantity of the bound cells remaining in the wells was determined with a fluorescent plate reader (Wallac 1420 ARVO multi-label counter). The fluorescent strength thus obtained is proportional to the number of RPMI-8866 cells bound to MAdCAM-1 and remaining on the plate. The binding rate of each test material in various concentrations was determined while the fluorescent strength of the test material-free well was determined to be 100%. The concentration IC50 for the 50% binding inhibition was calculated.

SMILES	IC50
O=C(O)[C@H](Cc1ccc(OCc2c(Cl)cccc2Cl)cc1)NC(=O)[C@H]1CC[C@H](C(=O)O)CC1 [Example 2, N-(Trans-4-carboxycyclohexane-1-carbonyl)-O-(2,6-dichlorobenzyl)-L-tyrosine]	≤ 0.2 µM
O=C(O)[C@H](Cc1ccc(OCc2c(Cl)cccc2Cl)cc1)NC(=O)[C@H]1CC[C@H](C(=O)NNc2ccccc2)CC1 [Example 3, N-(Trans-4-phenylhydrazinocarbonylcyclohexane-1-carbonyl)-O-(2,6-dichlorobenzyl)-L-tyrosine]	0.2 to 1 µM
O=C(O)[C@H](Cc1ccc(OCc2c(Cl)cccc2Cl)cc1)NC(=O)[C@H]1CC[C@H](C(=O)NCc2ccccc2)CC1 [Example 6]	1 to 5 µM
COc1cccc(NNC(=O)[C@H]2CC[C@H](C(=O)N[C@@H](Cc3ccc(OCc4c(Cl)cccc4Cl)cc3)C(=O)O)CC2)c1 [Example 44]	0.2 to 1 µM
O=C(Nc1ccc(C[C@H](NC(=O)[C@H]2CC[C@H](C(=O)O)CC2)C(=O)O)cc1)c1snnc1-c1ccccc1 [Example 45, N-(Trans-4-carboxycyclohexane-1-carbonyl)-4-{[(4-phenyl-1,2,3-thiadiazole-5-yl)carbonyl]amino}-L-phenylalanine]	1 to 5 µM
COc1cccc(OC)c1-c1ccc(C[C@H](NC(=O)[C@H]2CC[C@H](C(=O)O)CC2)C(=O)O)cc1 [Example 50, N-(Trans-4-carboxycyclohexane-1-carbonyl)-4-(2,6-dimethoxyphenyl)-L-phenylalanine]	1 to 5 µM
COc1ccc(NNC(=O)[C@H]2CC[C@H](C(=O)N[C@@H](Cc3ccc(-c4c(OC)cccc4OC)cc3)C(=O)O)CC2)cc1 [Example 51, N-[Trans-4-(4-methoxyphenylhydrazinocarbonyl)cyclohexane-1-carbonyl]-4-(2,6-dimethoxyphenyl)-L-phenylalanine]	0.2 to 1 µM

Continued, values first:

IC50	SMILES
0.2 to 1 µM	O=C(O)[C@H](Cc1ccc(OCc2c(Cl)cccc2Cl)cc1)NC(=O)[C@H]1CC[C@H](C(=O)NNc2ccc(Br)cc2)CC1 [Example 4, N-[Trans-4-(4-bromophenylhydrazinocarbonyl)cyclohexane-1-carbonyl]-O-(2,6-dichlorobenzyl)-L-tyrosine]
0.2 to 1 µM	COc1ccc(NNC(=O)[C@H]2CC[C@H](C(=O)N[C@@H](Cc3ccc(OCc4c(Cl)cccc4Cl)cc3)C(=O)O)CC2)cc1 [Example 14]
0.2 to 1 µM	Cc1ccc(NNC(=O)[C@H]2CC[C@H](C(=O)N[C@@H](Cc3ccc(OCc4c(Cl)cccc4Cl)cc3)C(=O)O)CC2)cc1 [Example 34]
1 to 5 µM	O=C(O)[C@H](Cc1ccc(OCc2c(Cl)cccc2Cl)cc1)NC(=O)[C@H]1CC[C@H](C(=O)NNc2ccc(OC(F)(F)F)cc2)CC1 [Example 35]
1 to 5 µM	COc1ccc(NNC(=O)[C@H]2CC[C@H](C(=O)N[C@@H](Cc3ccc(NC(=O)c4snnc4-c4ccccc4)cc3)C(=O)O)CC2)cc1 [Example 46, N-[Trans-4-(4-methoxyphenylhydrazinocarbonyl)cyclohexane-1-carbonyl]-4-{[(4-phenyl-1,2,3-thiadiazole-5-yl)carbonyl]amino}-L-phenyl-alanine]
